Experimental data: patent publication US20230330045A1 (priority 2020, published 2023)
Counter-ions that a name gives are not always drawn. Like-named read-outs stand apart in the source and are kept apart here.

Target: eel acetylcholinesterase (AChE) (Electrophorus electricus, UniProt O42275)
Assay: Eel AChE fluorescence assay (AMPLEX Red kit)
Format: biochemical
Settings: for assay interference test versus enzyme-free H2O2 reaction: parallel dose-response with 5 μM H2O2; for Hill slope, eel AChE dose-response: sixteen-point serial dilution, four-parameter fit
Protocol: Enzymatic reactions consisted of 50 μM acetylcholine, 200 μM AIVIPLEX™ Red reagent, 1 U/mL horseradish peroxidase, 0.1 U/mL choline oxidase and 0.096 U/mL acetylcholinesterase, with 30 1% DMSO. […] Control reactions lacking acetylcholinesterase but containing 5 μM H2O2 in presence of compounds were analyzed at the same wavelength to exclude compounds that display assay interference. Dose-response curves were performed in duplicate.

[1] = read-out: inhibition of enzyme activity compared to DMSO control (screen)
[2] = eel AChE activity, at 20 μM, read-out: Percentage inhibition

Sequence of eel acetylcholinesterase (AChE) (O42275 24-633): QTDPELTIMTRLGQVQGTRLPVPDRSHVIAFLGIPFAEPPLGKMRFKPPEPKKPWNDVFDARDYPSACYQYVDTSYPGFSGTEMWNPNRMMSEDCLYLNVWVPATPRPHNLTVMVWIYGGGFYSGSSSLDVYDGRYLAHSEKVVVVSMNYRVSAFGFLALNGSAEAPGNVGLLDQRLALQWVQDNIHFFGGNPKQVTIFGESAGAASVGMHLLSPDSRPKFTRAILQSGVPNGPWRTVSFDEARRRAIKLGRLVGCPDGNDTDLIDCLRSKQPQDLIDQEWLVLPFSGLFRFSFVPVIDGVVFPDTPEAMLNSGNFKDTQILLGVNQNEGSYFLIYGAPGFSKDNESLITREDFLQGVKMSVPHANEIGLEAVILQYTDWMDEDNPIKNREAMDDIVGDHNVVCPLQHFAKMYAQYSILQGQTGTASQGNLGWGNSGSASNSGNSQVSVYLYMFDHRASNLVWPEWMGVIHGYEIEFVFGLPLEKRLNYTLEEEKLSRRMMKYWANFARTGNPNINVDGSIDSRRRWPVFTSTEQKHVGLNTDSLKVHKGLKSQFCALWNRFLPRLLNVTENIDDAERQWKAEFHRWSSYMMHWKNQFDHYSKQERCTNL

Row | Compound | inhibition at 20 µM [1] [%] | assay interference test versus enzyme-free H2O2 reaction | Hill slope, eel AChE dose-response | inhibition at 20 µM [2] [%] | inhibition of AChE activity (in words) (eel AChE, 20 μM)
1 | CO[C@H]1/C=C/O[C@@]2(C)Oc3c(C)c(O)c4c(O)c(c5c(nc6cc(C)ccn65)c4c3C2=O)NC(=O)/C(C)=C\C=C\[C@H](C)[C@H](O)[C@@H](C)[C@@H](O)[C@@H](C)[C@H](OC(C)=O)[C@@H]1C [rifaximin] | ≥ 50 |  |  |  | 
2 | Cc1cc(N)c2ccccc2[n+]1CCCCCCCCCC[n+]1c(C)cc(N)c2ccccc21 [dequalinium chloride] | ≥ 50 | likely represent true inhibition of the enzyme | 0.87 |  | 
3 | agelasine |  | likely represent true inhibition of the enzyme | 0.79 |  | 
4 | CCN(CC)CCNc1ccc(C)c2sc3ccccc3c(=O)c12 [lucanthone] |  |  |  | 11 | did not show appreciable activity
5 | CCN(CC)CCC[C@H](C)Nc1c2ccc(Cl)cc2nc2ccc(OC)cc12 [quinacrine hydrochloride] | > 50 |  |  | 61.8 | 
